Patent publication US20150352037A1, “ANTI-AGING COMPOSITION FOR VITALIZATION OF RETINOIC ACID RECEPTOR THAT CONTAINS MIXED EXTRACT OF CHINESE MATRIMONY VINE AND PINE NEEDLES AS EFFECTIVE COMPONENT” (Amorepacific Corporation, priority 2011, published 2015)

How the values were obtained:
Format in all cases: cell-based
[1] = target: T1, retinoic acid receptor α (RAR-α) (Homo sapiens, UniProt P10276); test: Retinoic acid receptor α transcriptional activity, luciferase reporter in transfected CV-1 cells; settings: monkey kidney epithelial CV-1 cells, 20 h; extracts 100 μg/ml (Example 3: 100 μg/ml of each extract), retinoic acid 1 μM; corrected with β-galactosidase activity; control = 100
T1 construct: expressed in transfected cells; host or cells: monkey kidney epithelial CV-1 cells
T1 sequence (P10276 1-462): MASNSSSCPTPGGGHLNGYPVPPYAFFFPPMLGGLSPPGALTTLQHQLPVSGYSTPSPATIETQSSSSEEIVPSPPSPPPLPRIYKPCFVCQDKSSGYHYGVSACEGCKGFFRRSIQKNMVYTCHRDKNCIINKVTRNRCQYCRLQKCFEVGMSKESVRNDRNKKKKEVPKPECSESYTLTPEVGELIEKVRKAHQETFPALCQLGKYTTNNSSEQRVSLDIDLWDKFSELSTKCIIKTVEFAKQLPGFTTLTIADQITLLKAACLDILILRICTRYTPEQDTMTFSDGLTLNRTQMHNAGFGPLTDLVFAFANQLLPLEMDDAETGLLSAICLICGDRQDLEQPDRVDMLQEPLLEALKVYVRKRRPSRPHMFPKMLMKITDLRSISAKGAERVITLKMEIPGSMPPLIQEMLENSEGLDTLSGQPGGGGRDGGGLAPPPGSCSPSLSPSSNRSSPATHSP
Protocol: (§1) Using the Lycium chinense extract obtained in Example 1, the pine needle extract obtained in Example 2, and the Lycium chinense extract/pine needle extract mixture (Example 3) obtained by mixing the extract of Example 1 with the extract of Example 2, their effects on retinoic acid receptor α/γ (RAR-α/γ) transcriptional activities were measured in the following manner. As a positive control, retinoic acid known to activate retinoic acid receptor was used.
(§2) First, monkey kidney epithelial CV-1 cells were seeded into a 24-well plate at a concentration of 4×10^4 cells/well and cultured for 12-16 hours. Before transfection, the plate was washed with phosphate buffered saline (PBS), and then the medium was cultured. […] Then, each of the cell lysates was transferred to a cell culture plate (Costar) for a 96-well luminometer, and luciferase activity for each cell lysate was measured using Luciferase Assay System™ kit (Promega Corporation) according to the manufacturer's instruction. […]
(§3) Next, 50 μl of 1 M sodium carbonate (Na2CO3) solution was added to each well, and the absorbance of each well at 415 nm was measured. The efficiency of transformation in each cell lysate was corrected with the β-galactosidase activity measured as described above, and the relative activity of luciferase to the β-galactosidase activity was calculated and compared between Examples.

[2] = target: T2, retinoic acid receptor γ (RAR-γ) (Homo sapiens, UniProt P13631); test: Retinoic acid receptor γ transcriptional activity, luciferase reporter in transfected CV-1 cells; settings: monkey kidney epithelial CV-1 cells, 20 h; extracts 100 μg/ml (Example 3: 100 μg/ml of each extract), retinoic acid 1 μM; corrected with β-galactosidase activity; control = 100
T2 construct: expressed in transfected cells; host or cells: monkey kidney epithelial CV-1 cells
T2 sequence (P13631 1-454): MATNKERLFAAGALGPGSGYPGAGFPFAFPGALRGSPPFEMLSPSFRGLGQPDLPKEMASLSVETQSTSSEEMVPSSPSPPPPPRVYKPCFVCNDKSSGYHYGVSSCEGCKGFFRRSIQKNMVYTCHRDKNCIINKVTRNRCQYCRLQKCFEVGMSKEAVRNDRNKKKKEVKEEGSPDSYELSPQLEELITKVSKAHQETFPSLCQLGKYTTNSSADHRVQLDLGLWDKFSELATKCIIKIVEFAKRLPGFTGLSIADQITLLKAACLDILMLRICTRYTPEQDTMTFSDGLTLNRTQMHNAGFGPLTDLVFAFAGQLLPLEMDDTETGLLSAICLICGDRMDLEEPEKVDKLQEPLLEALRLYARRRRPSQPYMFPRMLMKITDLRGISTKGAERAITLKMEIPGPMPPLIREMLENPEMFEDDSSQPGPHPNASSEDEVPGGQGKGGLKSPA
Protocol: as §1, §2, §3

collagenase = test: Inhibition of collagenase expression (collagenase production) in human fibroblasts, ELISA absorbance at 405 nm; settings: 24 h treatment, extracts 100 μg/ml (Example 3: 100 μg/ml of each extract), retinoic acid 1 μM, untreated control = 100
Protocol: Using the Lycium chinense fruit extract obtained in Example 1, the pine tree extract obtained in Example 2, and a 1:1 (w/w) mixture (Example 3) of a Lycium chinense fruit extract obtained by extracting 100 g of Lycium chinense fruits according to the method of Example 1 and a pine needle extract obtained by extracting 100 g of pine needles according to the method of Example 2, their effects on the inhibition of collagenase expression (collagenase production) were measured in the following manner. As a positive control, retinoic acid known to inhibit collagenase expression was used. […]
Next, the degree of collagenase production in each of the harvested cell cultures was measured using a collagenase measurement device (Amersham Phamasia, USA). […]
The absorbance of the 96-well plate having a yellow color was measured at 405 nm using an absorbance spectrometer, and the expression of collagenase was calculated using the following Equation 1. Herein, the absorbance of an untreated group was used as a control group. That is, the expression of collagenase in the control group was set at 100, and the expression of collagenase in each test group was calculated relative to the control group. […]
wherein A is the absorbance of the cell group treated with each test material, and B is the absorbance of the control group.

In the case of `CC1=C(/C=C/C(C)=C/C=C/C(C)=C/C(=O)O)C(C)(C)CCC1` [Retinoic acid, retinoic acid], the “Relative activity (%) of luciferase (RAR-α)” value [1] is reported as 343%, the “Relative activity (%) of luciferase (RAR-γ)” value [2] is reported as 385% and the “Collagenase expression (%)” value (collagenase) is reported as 51.3%.
